Experimental findings from the supplement of paper PMC10290057 are described below.

Test [1] concerns HCT116. Nature of the test: AC50 cell viability (CellTiter-Glo); higher = less potent. The settings on record: 48 h. (Cellular ATP, detected with luciferase, serves as a proxy for viable cell number.)
Test [2] relates to HCT116. Nature of the test: efficacy (fitted maximal change in viability relative to DMSO control); higher = less cytotoxic (negative = loss of viability). Particulars: 48 h.

Where a name gives a salt, the structure may show the parent alone.
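For AC50 cell viability (CellTiter-Glo) in this document: HCT116 colorectal carcinoma cells screened at five concentrations per compound, luminescent viability scaled between DMSO wells and empty wells on each plate, curves fitted per compound.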
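For efficacy (fitted maximal change in viability relative to DMSO control) in this document: Luminescence-based viability readout, five doses per compound, normalized against on-plate DMSO and empty-well controls, followed by dose-response curve fitting for every drug.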

In turn, `Cc1ccc(NC(=O)c2ccc(CN3CCNCC3)cc2)cc1Nc1nccc(-c2cccnc2)n1` came in with an AC50 cell viability in test [1] of 18.6 µM. The efficacy in test [2] is -93.9%.

`Cc1c(NC(=O)OCC2COCCN2)cn2ncnc(Nc3ccc4c(cnn4Cc4cccc(F)c4)c3)c12` (stereo not drawn) registered an AC50 cell viability in test [1] of 26.3 µM. For the same compound, the efficacy in test [2] was -91.3%.

The compound `CCc1ccc2nc(Nc3cc(Cc4ccccc4)nc(N[C@H]4CC[C@H](O)CC4)n3)sc2c1` returned an AC50 cell viability in test [1] of 18.6 µM. Also, the efficacy in test [2] was -65.1%.

Compound `CCN(CC)CCCCNc1nc2cc(Cl)c(Cl)cc2nc1-c1ccc(-c2cccs2)s1` came in with an AC50 cell viability in test [1] of 23.5 µM. The efficacy in test [2] was -97.7%.

The compound `CCOC1=CC(=CC=C1C/2=N/[C@@](C)(C3=CC=C(Cl)C=C3)[C@](C)(N2C(=O)N4CCN(CC4)CC(=O)N5CCOCC5)C6=CC=C(Cl)C=C6)C(C)(C)C` came in with an AC50 cell viability in test [1] of 9.17 µM. In test [2], the efficacy is -114%.

`CN1CCN(CC1)C2=CC=C(NC3=NC=C4\C=C(\C#N)C(=O)N(C5CCCC5)C4=N3)C=C2` came in with an AC50 cell viability in test [1] of 1.32 µM. Further, the efficacy in test [2] was -77.1%.

In the case of `CNC(=O)c1c(F)cccc1Nc1nc(Nc2cc3c(cc2OC)CCN3C(=O)CN(C)C)nc2[nH]ccc12`, the AC50 cell viability in test [1] is 5.25 µM. Besides, in test [2], the efficacy is -131%.

In test [1], `CNC(=O)Nc1ccc(-c2nc(N3CC4CCC(C3)O4)c3cnn(C4CCC5(CC4)OCCO5)c3n2)cc1` displayed an AC50 cell viability of 1.18 µM. In addition, the efficacy in test [2] is -96.3%.

In test [1], `COc1cc(Oc2ccnc3cc(OC)c(OC)cc23)ccc1NC(=O)NC(C)c1nccs1` (stereo not drawn) registered an AC50 cell viability of 20.9 µM. In addition, the efficacy in test [2] was -63.5%.

As to `COc1cc2ncnc(Oc3cccc(NC(=O)Nc4cc(C(C)(C)C(F)(F)F)on4)c3)c2cc1OC`, in test [1], the AC50 cell viability came out at 3.72 µM. The efficacy in test [2] is -66.5%.

Turning to `C[C@@H](Oc1cc(-n2cnc3ccc(CN4CCN(C)CC4)cc32)sc1C(N)=O)c1ccccc1C(F)(F)F`, the AC50 cell viability in test [1] was found to be 0.0468 µM. Moreover, in test [2], the efficacy is -57.6%.

`C[C@H](NC(=O)c1sccc1OCc1ccc(Cl)cc1)c1ccccc1` returned an AC50 cell viability in test [1] of 16.6 µM. Besides, in test [2], the efficacy is -50.9%.

`Cc1ccc(-c2ccc3ncc4c(c3n2)n(C2CCN(C(=O)[C@H](C)O)CC2)c(=O)n4C)cn1` showed an AC50 cell viability in test [1] of 0.166 µM. In addition, the efficacy in test [2] is -86.9%.

`Cn1ncc(Cl)c1-c1cc(C(=O)NC(CN)Cc2ccc(F)c(F)c2)oc1Cl` (stereo not drawn) registered an AC50 cell viability in test [1] of 13.2 µM. For the same compound, the efficacy in test [2] is -117%.

As for `O=C(/C=C/c1ccc(Cl)cc1)N1CCC2(CC1)CN(Cc1ccc(Cl)c(Cl)c1)C(=O)O2`, the AC50 cell viability in test [1] was 23.5 µM. Besides, the efficacy in test [2] is -85.1%.

Turning to `ClC1=C[NH]N=C1C\2NC(=N\C3=C2C(=O)CCC3)/NC4=NC5=CC=CC=C5O4` (stereo not drawn), the AC50 cell viability in test [1] came to 18.6 µM. In addition, the efficacy in test [2] was -63.3%.

With `O=C(NOCC1CC1)c1ccc(F)c(F)c1Nc1ccc(I)cc1Cl`, the AC50 cell viability in test [1] was 4.68 µM. In addition, in test [2], the efficacy was -126%.

As to `N#Cc1ccc(-c2c(-c3nnc[nH]3)sc(N3CCOCC3)c2C#N)c(F)c1`, the AC50 cell viability in test [1] turned out to be 1.86 µM. For the same compound, the efficacy in test [2] was -83.5%.

As for `NC1(Cc2ccc(Cl)cc2)CCN(c2ncnc3[nH]ccc23)CC1`, the AC50 cell viability in test [1] was 13.2 µM. Further, the efficacy in test [2] was -95.2%.

Take `NC1=C(Cl)C(=CC=N1)OC2=C(F)C=C(NC(=O)\C3=C\N\C=C(C3=O)\C4=CC=C(F)C=C4)C=C2`: the AC50 cell viability in test [1] stood at 16.6 µM. For the same compound, the efficacy in test [2] was -78.4%.

Compound `Nc1ccc(C(=O)Nc2cccc(-c3nc(N4CCOCC4)c4oc5ncccc5c4n3)c2)cn1` gave an AC50 cell viability in test [1] of 5.9 µM. Further, the efficacy in test [2] is -88.1%.

Compound `O=C(NOCC(O)CO)c1ccc(F)c(F)c1Nc1ccc(I)cc1F` (stereo not drawn) displayed an AC50 cell viability in test [1] of 0.166 µM. Besides, the efficacy in test [2] is -68.6%.

As to `OCCn1cc(-c2ccc3c(c2)CC/C3=N\O)c(-c2ccncc2)n1`, the AC50 cell viability in test [1] is 4.68 µM. The efficacy in test [2] is -55.7%.

In test [1], `N#Cc1ccc2c(c1)CN([S+](=O)([O-])c1cccs1)[C@H](Cc1ccccc1)CN2Cc1cnc[nH]1` registered an AC50 cell viability of 0.417 µM. The efficacy in test [2] is -73.3%.

Consider `Cc1ccc(C(=O)Nc2ccc(CN3CCN(C)CC3)c(C(F)(F)F)c2)cc1C#Cc1cnc2cccnn12` [Ponatinib], for which, in test [1], the AC50 cell viability was found to be 1.48 µM.

For `CN[C@H](CC(C)C)C(=O)N[C@H]1C(=O)N[C@@H](CC(N)=O)C(=O)N[C@H]2C(=O)N[C@H]3C(=O)N[C@H](C(=O)N[C@H](C(=O)O)c4cc(O)cc(O)c4-c4cc3ccc4O)[C@H](O)c3ccc(c(Cl)c3)Oc3cc2cc(c3O[C@@H]2O[C@H](CO)[C@@H](O)[C@H](O)[C@H]2O[C@H]2C[C@](C)(N)[C@H](O)[C@H](C)O2)Oc2ccc(cc2Cl)[C@H]1O` [Vancomycin hydrochloride], in test [2], the efficacy was -27%.

On to `O=C(O)CC/C=C\CC[C@@H]1[C@@H](N2CCCCC2)[C@@H](O)C[C@@H]1OCc1ccc(-c2ccccc2)cc1` [Vapiprost hydrochloride], for which, in test [2], the efficacy was -23.2%.

With `CCCC1=NC(=C2[N]1NC(=N\C2=O)/C3=CC(=CC=C3OCC)[S+]([O-])(=O)N4CCN(CC)CC4)C` [Vardenafil], the efficacy in test [2] is -19.1%.

Consider `CCc1c(C(=O)C(N)=O)c2c(OCC(=O)O)cccc2n1Cc1ccccc1` [Varespladib], for which the efficacy in test [2] is -27.8%.

For `Clc1ccc(Nc2nnc(Cc3ccncc3)c3ccccc23)cc1` [Vatalanib], the efficacy in test [2] is -27.3%.

Turning to `CC(=O)O[C@H]1C[C@@H]2CC[C@@H]3[C@H](CC[C@@]4(C)[C@H]3C[C@H]([N+]3(C)CCCCC3)[C@@H]4OC(C)=O)[C@@]2(C)C[C@@H]1N1CCCCC1.[Br-]` [Vecuronium bromide], the efficacy in test [2] was -10.9%.

Take `O=C(O)[C@@H](c1ccc(OCc2ccc3ccccc3n2)cc1)C1CCCC1` [Veliflapon]: the efficacy in test [2] was -10.1%.

On to `C[C@]1(c2nc3c(C(N)=O)cccc3[nH]2)CCCN1` [Veliparib], for which, in test [2], the efficacy was -31.3%.

As to `CCC[S+](=O)([O-])Nc1ccc(F)c(C(=O)c2c[nH]c3ncc(-c4ccc(Cl)cc4)cc23)c1F` [Vemurafenib], the efficacy in test [2] amounted to 9.66%.

`CC1(C)CCC(=C(\C1)C2=CC=C(Cl)C=C2)/CN3CCN(CC3)C4=CC(=C(C=C4)C(=O)N[S+]([O-])(=O)C5=CC=C(NCC6CCOCC6)C(=C5)[N+]([O-])=O)OC7=CN=C8[NH]C=CC8=C7` [Venetoclax (ABT-199)]: the efficacy in test [2] was -73.3%.

In test [1], `COc1ccc(CCN(C)CCCC(C#N)(c2ccc(OC)c(OC)c2)C(C)C)cc1OC` (stereo not drawn) [Verapamil] had an AC50 cell viability of 18.6 µM.

With `CCCCOc1nc(N)c2c(n1)N(Cc1cccc(CN3CCCC3)c1)CC(=O)N2` [Vesatolimod], the efficacy in test [2] was -47.6%.

As for `COc1ccc(C(=O)N2CCN(c3ccc4c(c3)CCC(=O)N4)CC2)cc1OC` [Vesnarinone], in test [2], the efficacy is -21.4%.

For the compound `Nc1ncnc2c1ncn2[C@@H]1O[C@H](CO)[C@@H](O)[C@@H]1O` [Vidarabine], the efficacy in test [2] is -11.4%.

As for `C[S+](=O)([O-])c1ccc(C(=O)Nc2ccc(Cl)c(-c3ccccn3)c2)c(Cl)c1` [Vismodegib], the efficacy in test [2] was -23.8%.

In the case of `CCOC(=O)N[C@@H]1CC[C@@H]2[C@@H](C1)C[C@H]1C(=O)O[C@H](C)[C@H]1[C@H]2/C=C/c1ccc(-c2cccc(F)c2)cn1` [Vorapaxar], the efficacy in test [2] is -40.6%.

In the case of `C[C@@H](c1ncncc1F)[C@](O)(Cn1cncn1)c1ccc(F)cc1F` [Voriconazole], the efficacy in test [2] is -12.1%.

Consider `O=C(CCCCCCC(=O)Nc1ccccc1)NO` [Vorinostat (SAHA)], for which the efficacy in test [2] is -81%.

For the compound `CN[C@@H]1CN(C[C@H]1OC)C2=NC3=C(C=C2)C(=O)C(=C\N3C4=NC=CS4)/C(O)=O` [Vosaroxin], the efficacy in test [2] was -17.8%.

Consider `Cc1c(F)ccc(C(=O)Nc2cc([N+](=O)[O-])ccc2N2CCN(C)CC2)c1Cl` [WDR5-C47], for which the efficacy in test [2] is -7.44%.

For the compound `COc1cc2ncnc(Nc3cc(Br)c(O)c(Br)c3)c2cc1OC` [WHI-P97], in test [2], the efficacy is -37.8%.

For the compound `C[C@H](NC(=O)/C(C#N)=C/c1cccc(Br)n1)c1ccccc1` [WP-1066], the efficacy in test [2] was -83.5%.

Turning to `Cc1cc(-c2ccc(CC(=O)Nc3ccc(-c4cccnc4)cc3)cc2)ccn1` [Wnt-C59], the efficacy in test [2] was -33.8%.

In the case of `O=C(Nc1ccc(-c2ccnc(Nc3ccc(N4CCOCC4)cc3)n2)cc1)C1CCCN1` (stereo not drawn) [XL-019], the efficacy in test [2] is -19.1%.

For `Cc1ccc([S+](=O)([O-])Nc2nc3ccccc3nc2Nc2ccc3nsnc3c2)cc1` [XL-147], the efficacy in test [2] is -12%.

`CC1=CC(=CC(=C1C\C2=N\CCN2)C)C(C)(C)C` [Xylometazoline hydrochloride]: the efficacy in test [2] was -32.9%.

`N#Cc1ccc(N(Cc2ccc(Br)cc2)n2cnnc2)cc1` [YM-511]: the efficacy in test [2] is -14.3%.

As for `COC(=O)[C@@H]1[C@H]2C[C@H]3c4[nH]c5ccccc5c4CCN3C[C@@H]2CC[C@@H]1O` [Yohimbine], the efficacy in test [2] was -8.81%.

For `CC(C(=O)O)c1ccc2c(c1)CC(=O)c1ccccc1S2` (stereo not drawn) [Zaltoprofen], the efficacy in test [2] came to 8.02%.

Turning to `OC[C@H]1O[C@H]([C@H](O)[C@@H]1O)N2/C=C\C=N/C2=O` [Zebularine], in test [2], the efficacy is -11.7%.

As for `CC(c1cc2ccccc2s1)N(O)C(N)=O` (stereo not drawn) [Zileuton], in test [2], the efficacy is -26.8%.

Turning to `CC1=C(/C=C/C(C)=C/C=C/C(C)=C/C=C/C=C(C)/C=C/C=C(C)/C=C/C2=C(C)CCCC2(C)C)C(C)(C)CCC1` [beta-Carotene], the efficacy in test [2] is -21.3%.

For the compound `CCCCn1c(=O)n(Cc2ccccc2F)c(=O)c2nc(Cc3ccc(NC(C)=O)cc3)[nH]c21` [cPEPCK Inhibitor], the efficacy in test [2] was -8.36%.

On to `CC/1=C2/N(C(=O)C(=C1)/NC3=CC(=NC=N3)N)C4(CCCCC4)NC2=O` [eFT508], for which, in test [2], the efficacy is -7.54%.
